Test results taken from patent publication US9777020B2, “Furo-3-carboxamide derivatives and methods of use” (AbbVie Inc., priority 2014, dated 2017).
Marks after values point to notes of the source that are not given here.

Tests used:
[1] = molecular target: TrkA (Homo sapiens (Human), UniProt P04629); assay: TrkA kinase HTRF enzyme inhibition assay; format: biochemical; details: TrkA pre-incubated with 200 μM ATP
How it was run: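 TrkA (2-10 nM) pre-activated 20 min with 200 μM ATP in HEPES pH 7.4/Mg/Mn buffer, compound added for 10 min, then biotinylated LCK-analog peptide (125 nM) for 1 h at ambient temperature. HTRF phosphotyrosine detection (665/620 ratio); duplicate half-log dilutions, IC50 from initial-rate inhibition via equation 1.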

[2] = test system: MIA-induced osteoarthritis pain; assay: Rat model of mono-iodoacetic acid (MIA) induced osteoarthritis pain, hind limb grip force; format: in vivo; details: mean percent effect
Experimental: Members of the TrkA inhibitors described above were tested and found effective in reducing osteoarthritis pain. The compounds tested were assessed in an in vivo model well known to those skilled in the art, the rat model of mono-iodoacetic acid induced osteoarthritis pain. A general review of various models of pain can be found in Joshi and Honore, Expert Opinion in Drug Discovery (2004) 1, pp. 323-334, and in the book ‘Drug Discovery and Evaluation, 2nd edition (H. Gerhard Vogel, editor; Springer-Verlag, New York, 2002; pp. 702-706). Pain behavior was assessed by measurement of hind limb grip force (GF) in adult osteoarthritic rats. Male Sprague Dawley rats, generally weighing 125-150 g, were injected in the unilateral knee join with a single intra-articular injection of sodium monoiodoacetate (MIA). Rats were tested at 21-28 days following MIA injection. A behavioral measure of activity-induced pain was carried out. Measurements of the peak hind limb grip force were conducted by recording the maximum compressive force (CFmax), in grams of force, exerted on a hind limb strain gauge setup, in a commercially available grip force measurement system (Columbus Instruments, Columbus, Ohio). During testing, each rat was gently restrained by grasping it around its rib cage and then allowed to grasp the wire mesh frame attached to the strain gauge. The experimenter then moved the animal in a rostral-to-caudal direction until the grip was broken. Each rat was sequentially tested twice at an approximately 2-3 minute interval to obtain a raw mean grip force (CFmax). This raw mean grip force data was in turn converted to a maximum hindlimb cumulative compressive force (CFmax), as the grams of force/kg of body weight, for each animal. For evaluating the compound effects, the hind limb grip force testing in the MIA-treated rats was conducted generally 30-60 minutes after dosing with the test compound. A group of age-matched naïve (not injected with MIA) animals was added as a comparator to the drug-dosed groups. The vehicle control response for each group of MIA-treated animals was defined as the 0% response (0% effect), whereas the naïve control group was defined as the normal response and as 100% effect. The % effect=(Treatment CFmax−Vehicle CFmax)[…]]×100). Higher % effect numbers indicate increased relief from the pain in the model, with 100% indicating a return to the level of response seen in normal (non-osteoarthritic) animals. All experiments evaluating drug effects in this model were conducted in a randomized blinded fashion. Male Sprague Dawley rats (generally 250-300 g body weight at the time of testing) obtained from Charles River Laboratories (Wilmington, Mass.) were used for all experiments, unless indicated otherwise. The animals were housed in Association for Assessment and Accreditation of Laboratory Animal Care (AAALAC) approved facilities at AbbVie in a temperature-regulated environment under a controlled 12-hour light-dark cycle, with lights on at 6:00 a.m. Food and water were available ad libitum at all times except during testing. All testing was done following procedures outlined in protocols approved by AbbVie Institutional Animal Care and Use Committee.

Sequence of TrkA (P04629 33-796): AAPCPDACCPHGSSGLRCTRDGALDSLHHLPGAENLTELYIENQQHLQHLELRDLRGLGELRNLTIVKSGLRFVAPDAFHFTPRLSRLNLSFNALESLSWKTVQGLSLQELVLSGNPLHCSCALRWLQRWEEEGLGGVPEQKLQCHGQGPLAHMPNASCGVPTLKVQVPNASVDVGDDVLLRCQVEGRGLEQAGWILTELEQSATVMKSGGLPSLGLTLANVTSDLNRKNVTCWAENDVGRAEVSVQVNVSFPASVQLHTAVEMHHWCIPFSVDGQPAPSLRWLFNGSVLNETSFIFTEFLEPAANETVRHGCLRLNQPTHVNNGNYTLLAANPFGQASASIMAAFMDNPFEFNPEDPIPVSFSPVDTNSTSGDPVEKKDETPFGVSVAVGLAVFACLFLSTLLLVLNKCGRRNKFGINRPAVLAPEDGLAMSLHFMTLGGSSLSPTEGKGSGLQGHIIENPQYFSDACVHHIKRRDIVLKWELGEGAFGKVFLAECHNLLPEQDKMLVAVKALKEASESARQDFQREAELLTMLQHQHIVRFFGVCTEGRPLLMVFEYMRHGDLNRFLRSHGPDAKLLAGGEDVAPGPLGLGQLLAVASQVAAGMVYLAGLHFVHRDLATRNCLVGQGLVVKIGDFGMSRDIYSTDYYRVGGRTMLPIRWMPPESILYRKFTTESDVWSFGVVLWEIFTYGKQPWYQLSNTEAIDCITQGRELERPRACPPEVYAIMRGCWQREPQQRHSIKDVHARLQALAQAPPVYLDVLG

SMILES	IC50 [1]	% Effect (hind limb grip force, MIA model) ([2]; 30 mg/kg p.o., tested 3 hours post dose)	% Effect (hind limb grip force, MIA model) ([2]; 300 mg/kg p.o., tested 3 hours post dose)	% Effect (hind limb grip force, MIA model) ([2]; 30 mg/kg p.o., tested 30-60 minutes postdosing)
CCOc1nc(N2CCN(C(C)=O)CC2)ccc1NC(=O)c1coc2c1C(=O)NC(C)(C)C2 [Example 128, N-[6-(4-acetylpiperazin-1-yl)-2-ethoxypyridin-3-yl]-6,6-dimethyl-4-oxo-4,5,6,7-tetrahydrofuro[3,2-c]pyridine-3-carboxamide]	0.0054 µM	55% ***		
Cn1cc2cc(NC(=O)c3coc4c3C(=O)CC(C)(C)C4)ccc2n1 [Example 147, 6,6-dimethyl-N-(2-methyl-2H-indazol-5-yl)-4-oxo-4,5,6,7-tetrahydro-1-benzofuran-3-carboxamide]	0.0161 µM		69% ***	
COCCOc1nc(N2CCN(C(C)=O)CC2)ccc1NC(=O)c1coc2c1C(=O)NC(C)(C)C2 [Example 177, N-[6-(4-acetylpiperazin-1-yl)-2-(2-methoxyethoxyl)pyridin-3-yl]-6,6-dimethyl-4-oxo-4,5,6,7-tetrahydrofuro[3,2-c]pyridine-3-carboxamide]	0.0122 µM			68% ***
